The data set concerns rodent carcinogenicity bioassays, tumor incidence. Nature of the data set: CCRIS carcinogenicity studies. The essentials:
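NCI-built, expert-reviewed records of carcinogenicity and related test outcomes (mutagenicity, tumor promotion/inhibition) compiled from published and report sources, historical span 1985-2011, not updated.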

[1] abbreviates: Species: RAT, Route: SUBCUTANEOUS, Tumor Site: Type of Lesion: INJECTION SITE.

The source made the active and inactive calls. No rule for the calls is given here.

Regarding `ClCc1ccccc1`, the carcinogen call (Species: MOUSE, Strain/Sex: B6C3F1/FEMALE, Route: ORAL (GAVAGE), Dose: 0, 50, 100 MG/KG BW 3 X A WK FOR 2 YRS (TEST MATERIAL SOLVENT: CORN OIL), Dose: 0, 50, 100 MG/KG BW 3 X A WK FOR 2 YRS (TEST MATERIAL SOLVENT: CORN OIL), Tumor Site: Type of Lesion: FORESTOMACH: CARCINOMA AND PAPILLOMA, LUNG: ALVEOLAR-BRONCHIOLAR ADENOMA OR CARCINOMA (HIGH DOSE ONLY, P=0.053)) was “active; positive”; the carcinogen call (Species: MOUSE, Strain/Sex: B6C3F1/MALE, Route: ORAL (GAVAGE), Dose: 0, 50, 100 MG/KG BW 3 X A WK FOR 2 YRS (TEST MATERIAL SOLVENT: CORN OIL), Dose: 0, 50, 100 MG/KG BW 3 X A WK FOR 2 YRS (TEST MATERIAL SOLVENT: CORN OIL), Tumor Site: Type of Lesion: FORESTOMACH: CARCINOMA AND PAPILLOMA, LIVER: CARCINOMA OR ADENOMA (LOWER DOSE ONLY), CIRCULATORY SYSTEM: HEMANGIOMA OR H, Tumor Site: Type of Lesion: FORESTOMACH: CARCINOMA AND PAPILLOMA, LIVER: CARCINOMA OR ADENOMA (LOWER DOSE ONLY), CIRCULATORY SYSTEM: HEMANGIOMA OR H) is “active; positive”; the carcinogen call under setting [1] was “active; positive”; the carcinogen call (Species: RAT, Strain/Sex: F344/FEMALE, Route: ORAL (GAVAGE), Dose: 0, 15, 30 MG/KG BW 3 X A WK FOR 2 YRS (TEST MATERIAL SOLVENT: CORN OIL), Dose: 0, 15, 30 MG/KG BW 3 X A WK FOR 2 YRS (TEST MATERIAL SOLVENT: CORN OIL), Tumor Site: Type of Lesion: THYROID: C-CELL NEOPLASMS) was “active; positive”; the carcinogen call (Species: RAT, Strain/Sex: F344/MALE, Route: ORAL (GAVAGE), Dose: 0, 15, 30 MG/KG BW 3 X A WK FOR 2 YRS (TEST MATERIAL SOLVENT: CORN OIL), Dose: 0, 15, 30 MG/KG BW 3 X A WK FOR 2 YRS (TEST MATERIAL SOLVENT: CORN OIL)) is “inactive; negative”.

For `COC(=O)N/N=C/c1c[n+]([O-])c2ccccc2[n+]1[O-]`, the carcinogen call reads like this: (Species: RAT, Strain/Sex: WISTAR/FEMALE, Route: ORAL, Dose: 0, 50, 100, 250, 500 PPM IN DIET FOR 12 MO (STUDY DURATION: 12 MO), Dose: 0, 50, 100, 250, 500 PPM IN DIET FOR 12 MO (STUDY DURATION: 12 MO), Tumor Site: Type of Lesion: LIVER: HEPATOCELLULAR CARCINOMA) “active; positive”; (Species: RAT, Strain/Sex: WISTAR/MALE, Route: ORAL, Dose: 0, 50, 100, 250, 500 PPM IN DIET FOR 12 MO (STUDY DURATION: 12 MO), Dose: 0, 50, 100, 250, 500 PPM IN DIET FOR 12 MO (STUDY DURATION: 12 MO), Tumor Site: Type of Lesion: LIVER: HEPATOCELLULAR CARCINOMA) “active; positive”.

As for `C#C[C@]1(O)CC[C@H]2[C@@H]3CCC4=CC(=O)CC[C@@H]4[C@H]3CC[C@@]21C`, the carcinogen call (Species: MOUSE, Route: ORAL, Tumor Site: Type of Lesion: LIVER, LUNG) was “active; positive”.

Turning to `CC1(c2ccc(Oc3ccccc3)cc2)OC(=O)N(Nc2ccccc2)C1=O` (centres undefined), the carcinogen call reads like this: (Species: Mouse, Strain/Sex: CRL: CD1 (ICR)BR/Female (60/Group), Route: Oral, Dose: 0, 1.0, 9.8, 130, 392 mg/kg/day of 97.4% famoxadone in diet for 18 mo, study duration 18 mo, Dose: 0, 1.0, 9.8, 130, 392 mg/kg/day of 97.4% famoxadone in diet for 18 mo, study duration 18 mo) “inactive; negative”; (Species: Mouse, Strain/Sex: CRL: CD1 (ICR)BR/Male (60/Group), Route: Oral, Dose: 0, 0.7, 6.8, 96, 274 mg/kg/day of 97.4% famoxadone in diet for 18 mo, study duration 18 mo, Dose: 0, 0.7, 6.8, 96, 274 mg/kg/day of 97.4% famoxadone in diet for 18 mo, study duration 18 mo) “inactive; negative”; (Species: Rat, Strain/Sex: CRL: CD BR/Female (62/Group), Route: Oral, Dose: 0, 0.53, 2.15, 10.7, 23.0 mg/kg/day of 97.4% famoxadone in diet for 24 mo, study duration 24 mo, Dose: 0, 0.53, 2.15, 10.7, 23.0 mg/kg/day of 97.4% famoxadone in diet for 24 mo, study duration 24 mo) “inactive; negative”; (Species: Rat, Strain/Sex: CRL: CD BR/Male (62/Group), Route: Oral, Dose: 0, 0.42, 1.62, 8.4, 16.8 mg/kg/day of 97.4% famoxadone in diet for 23 mo, study duration 23 mo, Dose: 0, 0.42, 1.62, 8.4, 16.8 mg/kg/day of 97.4% famoxadone in diet for 23 mo, study duration 23 mo) “inactive; negative”.

For `O=C1CCO1`, the carcinogen call (Species: MOUSE, Route: DERMAL, Tumor Site: Type of Lesion: INTEGUMENTARY SYSTEM (SKIN)) was “active; positive”; the carcinogen call (Species: MOUSE, Route: INTRAPERITONEAL, Tumor Site: Type of Lesion: LIVER, LYMPHATIC SYSTEM: LYMPHOMA) was “active; positive”; the carcinogen call (Species: MOUSE, Route: SUBCUTANEOUS, Tumor Site: Type of Lesion: INJECTION SITE) was “active; positive”; the carcinogen call (Species: MOUSE, Strain/Sex: CF1/FEMALE, Route: DERMAL, Dose: 0, 2% IN ACETONE 2D/WK FOR 2 YR (STUDY DURATION: 2 YR), Tumor Site: Type of Lesion: SKIN: SQUAMOUS CELL CARCINOMA, SKIN: CARCINOSARCOMA) is “active; positive”; the carcinogen call (Species: MOUSE, Strain/Sex: CF1/MALE, Route: DERMAL, Dose: 0, 2% IN ACETONE 2D/WK FOR 104 WK (STUDY DURATION: 2 YR), Tumor Site: Type of Lesion: SKIN: SQUAMOUS CELL CARCINOMA, SKIN: DERMAL FIBROSARCOMA, SKIN: CARCINOSARCOMA, Tumor Site: Type of Lesion: SKIN: SQUAMOUS CELL CARCINOMA, SKIN: DERMAL FIBROSARCOMA, SKIN: CARCINOSARCOMA) is “active; positive”; the carcinogen call under setting [1] is “active; positive”. Also, the carcinogen call (Species: RAT, Strain/Sex: SPRAGUE-DAWLEY/MALE, Route: INHALATION, Dose: 0, 5, 10, 20 PPM 6 HR/D 5 D/WK FOR 30 D EXCEPT 20 PPM GROUP WHICH WAS EXPOSED FOR 5 D (STUDY DURATION: LIFETIME), Dose: 0, 5, 10, 20 PPM 6 HR/D 5 D/WK FOR 30 D EXCEPT 20 PPM GROUP WHICH WAS EXPOSED FOR 5 D (STUDY DURATION: LIFETIME), Tumor Site: Type of Lesion: NASAL CAVITY: TUMORS) is “active; positive”.

As for `Cc1c(N)cccc1N`, the carcinogen call was “inactive; negative” (Species: MOUSE, Strain/Sex: B6C3F1/FEMALE, Route: ORAL, Dose: 0, 50, 100 PPM IN DIET, Dose: 0, 50, 100 PPM IN DIET); “inactive; negative” (Species: MOUSE, Strain/Sex: B6C3F1/MALE, Route: ORAL, Dose: 0, 50, 100 PPM IN DIET, Dose: 0, 50, 100 PPM IN DIET); “inactive; negative” (Species: RAT, Strain/Sex: F344/FEMALE, Route: ORAL, Dose: 0, 250, 500 PPM IN DIET, Dose: 0, 250, 500 PPM IN DIET); “inactive; negative” (Species: RAT, Strain/Sex: F344/MALE, Route: ORAL, Dose: 0, 250, 500 PPM IN DIET, Dose: 0, 250, 500 PPM IN DIET).

Take `CC(C)(C)NC[C@H](O)COc1cccc2c1CCCC2=O`: the carcinogen call was “inactive; negative” (Species: MOUSE, Strain/Sex: SWISS/MALE, Route: ORAL, Dose: 0, 12, 50, 200 MG/KG/D IN DIET FOR 80 WK (STUDY DURATION: 80 WK), Dose: 0, 12, 50, 200 MG/KG/D IN DIET FOR 80 WK (STUDY DURATION: 80 WK)); “inactive; negative” (Species: RAT, Strain/Sex: WISTAR/FEMALE, Route: ORAL, Dose: 0, 0.5, 2, 5 MG/KG/D IN DIET FOR 2 YR (STUDY DURATION: 2 YR), Dose: 0, 0.5, 2, 5 MG/KG/D IN DIET FOR 2 YR (STUDY DURATION: 2 YR)); “inactive; negative” (Species: RAT, Strain/Sex: WISTAR/FEMALE, Route: ORAL, Dose: 0, 5, 30, 180 MG/KG/D IN DIET FOR 2 YR (STUDY DURATION: 2 YR), Dose: 0, 5, 30, 180 MG/KG/D IN DIET FOR 2 YR (STUDY DURATION: 2 YR)); “inactive; negative” (Species: RAT, Strain/Sex: WISTAR/MALE, Route: ORAL, Dose: 0, 0.5, 2, 5 MG/KG/D IN DIET FOR 2 YR (STUDY DURATION: 2 YR), Dose: 0, 0.5, 2, 5 MG/KG/D IN DIET FOR 2 YR (STUDY DURATION: 2 YR)); “active; positive” (Species: RAT, Strain/Sex: WISTAR/MALE, Route: ORAL, Dose: 0, 5, 30, 180 MG/KG/D IN DIET FOR 2 YR (STUDY DURATION: 2 YR), Dose: 0, 5, 30, 180 MG/KG/D IN DIET FOR 2 YR (STUDY DURATION: 2 YR), Tumor Site: Type of Lesion: LIVER: HEPATOMA).

Turning to `O=C1c2ccccc2-c2ccc([N+](=O)[O-])c3cccc1c23`, the carcinogen call (Species: RAT, Strain/Sex: F344/FEMALE, Route: INTRATRACHEAL, Dose: 0, 1.5 MG TOTAL, 2.5 MG TOTAL OVER 18 MO (STUDY DURATION: 18 MO), Dose: 0, 1.5 MG TOTAL, 2.5 MG TOTAL OVER 18 MO (STUDY DURATION: 18 MO), Tumor Site: Type of Lesion: LUNG: CARCINOMA) was “active; positive (at higher dosage and longer duration)”.

(Values after PubChem BioAssay AID1259411 (Chemical Carcinogenesis Research Information System (CCRIS), 2018).)
